Consider two compounds from US10752612B2, “PLK4 inhibitors” (LUDWIG INSTITUTE FOR CANCER RESEARCH LTD, priority 2015, dated 2020).

For assay [1], the system named is p53. Nature of the assay: Western blotting, RPE1. In kind it is cell-based, human. The procedure:
Western blotting. […] Cell extracts were stored at −80° C. until use.
For p53, p-p53(S33), p-p53(S392), p-p38(T180/Y182), acetyl-p53(K382), LATS2, YAP, MDM2, MAPKAPK-2 and GFP, blocking and antibody incubations were performed in TBS-T+5% non-fat dry milk. For p-YAP(S127), p-p53(S9), p-p53(S15), p-p53(S20), p-p53(S37), p-p53(S315), p21 and p-MAPKAPK-2(T334), blocking and antibody incubations were performed in TBS-T+5% BSA. Detection was performed using HRP-conjugated secondary antibodies (GE Healthcare) with WesternBright Sirius (Advansta) or SuperSignal West Femto (Thermo Scientific) substrates. Membranes were imaged on a ChemiDoc MP system (Bio-Rad). Membranes were stripped and reprobed with antibodies against α-tubulin or GAPDH as loading controls.

The test system of assay [2] is RPE1 cells. Kind of assay: Passaging assay and flow cytometry, RPE1. In kind it is cell-based, human. The note with it: RPE1, addition Day 0, washout Day 8. The protocol: Passaging assays. Cells were seeded into 10 cm tissue culture plates at 150,000 (HeLa, NIH/3T3 and RPE1) or 200,000 cells/plate (primary fibroblasts). Compounds were added at the indicated concentrations. At 4-day intervals, cells were harvested, counted using a TC10 cell counter, and re-seeded into new plates at the densities above. Results are from 2 independent experiments.
Flow cytometry. Cells were seeded into 15 cm tissue culture plates such that each plate was 50-80% confluent at the time of harvesting. Cells were de-adhered by trypsinization and pelleted in 15 ml tubes by centrifugation. Each pellet was resuspended in 0.3 mL PBS, and 0.7 mL ice-cold 100% ethanol was added to the tube while gently vortexing. Fixed cells were stored at 4° C. for up to 2 weeks. For DNA content analysis, fixed cells were pelleted, washed twice with PBS, and resuspended in 0.5 mL PBS+2% BSA and Alexa488-conjugated anti-p-H3(Ser10) antibody. Samples were incubated for 1 hour at 4° C., then washed twice with PBS+2% BSA. Pellets were resuspended in 1 mL PBS+2% BSA, 10 μg/ml propidium iodide (Sigma-Aldrich), 500 µg/ml RNAse A (Thermo Scientific). Samples were incubated at 37° C. for 30 minutes, then transferred to 12×75 mm tubes for analysis. Data were acquired using FACSDiva software on a LSR II flow cytometer (BD Biosciences). 50,000 cells were analyzed per condition. Cell cycle fitting was performed using ModFit LT (Verity Software House).

Assay [3] deals with p38. The note with it: RPE1, osmotic stress. The procedure:
MAPKAPK-2 activation assay. RPE1 cells on 10 cm plates were treated with DMSO or 10 μM SB203580 for 2 hours prior to induction of stress.
Western blotting. Asynchronously growing cells from 10 cm plates were harvested at 50-80% confluence and lysed by sonication in RIPA buffer+protease and phosphatase inhibitor cocktail (Thermo Scientific). Cell extracts were stored at −80° C. until use. Before use, concentrations of extracts were normalized using a Bio-Rad Protein Assay (Bio-Rad). For every sample, 25-50 μg protein/lane was run on Mini-PROTEAN gels (Bio-Rad), and transferred to PVDF membranes using a TransBlot Turbo system (Bio-Rad).

SMILES strings stand for the structures.

Take `CCOc1cc(C(C)(C)C)ccc1C1=N[C@@](C)(c2ccc(Cl)cc2)[C@@](C)(c2ccc(Cl)cc2)N1C(=O)N1CCN(CCCS(C)(=O)=O)CC1` [R7112]: the p53 levels result in assay [1] is on record as “raised p53 levels”. In assay [2], the proliferation after washout entry is listed as “led to resumption of proliferation”. Regarding `C[S+]([O-])c1ccc(-c2nc(-c3ccncc3)c(-c3ccc(F)cc3)[nH]2)cc1` (stereo not drawn) [SB203580], the “phosphorylation of MAPKAPK-2 by p38” value in assay [3] is recorded as “blocks phosphorylation of MAPKAPK-2”.
